Laboratory results: PMC6010071, “Blocking oestradiol synthesis pathways with potent and selective coumarin derivatives” (Journal of Enzyme Inhibition and Medicinal Chemistry, 2018)

Legend:
Assay type in all cases: biochemical
MAO-B = molecular target: T1, MAO-B (Homo sapiens, UniProt P27338); assay: MAO-B inhibition, continuous spectrophotometric assay
T1 construct: purchased Sigma-Aldrich (St. Louis, MO)
T1 sequence (P27338 1-520): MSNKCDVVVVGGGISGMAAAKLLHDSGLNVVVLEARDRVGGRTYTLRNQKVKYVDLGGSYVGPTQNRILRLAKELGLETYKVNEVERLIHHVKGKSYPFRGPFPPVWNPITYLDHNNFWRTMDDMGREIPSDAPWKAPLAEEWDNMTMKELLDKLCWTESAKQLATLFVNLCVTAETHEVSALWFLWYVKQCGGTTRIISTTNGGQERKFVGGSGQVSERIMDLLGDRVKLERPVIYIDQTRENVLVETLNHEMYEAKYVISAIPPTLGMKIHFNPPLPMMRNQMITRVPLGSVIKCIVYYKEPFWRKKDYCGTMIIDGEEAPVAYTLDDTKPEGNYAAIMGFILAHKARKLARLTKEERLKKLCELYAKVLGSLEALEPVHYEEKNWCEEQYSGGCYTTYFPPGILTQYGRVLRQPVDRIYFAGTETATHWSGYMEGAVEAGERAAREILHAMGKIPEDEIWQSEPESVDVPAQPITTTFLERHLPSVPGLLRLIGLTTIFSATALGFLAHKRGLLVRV
Description: The protocol of continuous spectrophotometric assay by Holt et al. was first used to determine the activity of the proteins. […] The protein was first incubated for 30 min at 37 °C in the chromogenic solution and then the substrate tyramine was introduced at 0.5 mM final plate concentration completing the assay volume. […] The assay should produce absorbance change of ∼0.35[23]. […] These protein concentrations were selected to be used to analyse the molecules 1–9. The analysis conditions followed the above-described assay protocol[23] and the activity of tested molecules was measured at 100 µM for MAO-A and at 10 µM for MAO-B. The analysis was performed as single point measurements and the signal was read by the same instrument at the expected assay maximum indicated by the activity measurements, at 30 min for MAO-A and at 2 h for MAO-B, respectively. […] The observed activity was calculated as inhibition percentage (Table 1).

[1] = molecular target: T2, Aromatase (CYP19A1), human placental microsomes (Homo sapiens, UniProt P11511); assay: Aromatase activity, [3H]-H2O release from [3H]-androstenedione; conditions: 50 nM [3H]-androstenedione; inhibitor 60–1000 nM; read-out: Aromatase inhibition ∼ pIC50 (converted)
T2 construct: by using human placental microsomes; from tissue; host or cells: human placental microsomes
T2 sequence (P11511 1-503): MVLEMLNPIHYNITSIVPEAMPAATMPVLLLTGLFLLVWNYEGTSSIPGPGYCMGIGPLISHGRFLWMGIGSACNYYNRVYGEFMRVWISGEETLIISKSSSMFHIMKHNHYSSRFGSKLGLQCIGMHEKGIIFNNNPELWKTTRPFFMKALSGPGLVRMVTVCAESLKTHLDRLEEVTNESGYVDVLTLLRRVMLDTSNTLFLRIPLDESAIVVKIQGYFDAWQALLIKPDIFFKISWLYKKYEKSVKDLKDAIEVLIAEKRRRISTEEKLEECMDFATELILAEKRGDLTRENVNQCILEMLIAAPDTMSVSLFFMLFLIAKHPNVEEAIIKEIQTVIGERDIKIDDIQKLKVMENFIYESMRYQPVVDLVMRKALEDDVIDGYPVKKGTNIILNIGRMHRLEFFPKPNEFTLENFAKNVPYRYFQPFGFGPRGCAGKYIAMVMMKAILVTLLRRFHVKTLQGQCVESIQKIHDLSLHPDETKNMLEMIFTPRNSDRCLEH
Description: Aromatase (CYP19A1) activity was measured as described previously[22] by using human placental microsomes and 50 nM [3H]-androstenedione as a substrate and inhibitor concentrations in the range of 60–1000 nM. Aromatase activities were measured as released [3H]-H2O in Optiphase Hisafe 2 scintillation liquid (Perkin Elmer, Waltham, MA) with a Wallac 1450 MicroBeta Trilux scintillation counter (Perkin Elmer, Waltham, MA). As a positive control for aromatase inhibition, 1 µM finrozole (generous gift from Olavi Pelkonen, University of Oulu, Finland) was used.

recombinant human HSD1 = molecular target: T3, recombinant human HSD1 (Homo sapiens, UniProt P14061); assay: HSD1 inhibition, HPLC assay of [3H]-E1 to [3H]-E2 conversion
T3 construct: made in house; host or cells: Sf9 insect cells
T3 sequence (P14061 1-328): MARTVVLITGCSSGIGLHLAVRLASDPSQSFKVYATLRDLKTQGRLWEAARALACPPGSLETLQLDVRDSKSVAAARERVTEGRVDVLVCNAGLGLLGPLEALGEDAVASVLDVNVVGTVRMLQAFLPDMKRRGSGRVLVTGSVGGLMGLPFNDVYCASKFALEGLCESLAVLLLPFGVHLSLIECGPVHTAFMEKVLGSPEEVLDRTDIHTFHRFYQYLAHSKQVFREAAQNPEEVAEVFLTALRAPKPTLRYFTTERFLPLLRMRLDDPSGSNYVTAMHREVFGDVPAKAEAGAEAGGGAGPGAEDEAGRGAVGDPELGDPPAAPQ
Description: The inhibition was determined by HPLC using recombinant human HSD1 and HSD2 proteins as described in a prior study. In short, recombinant human HSD1 and HSD2 were produced in Sf9-insect cells. […] After incubation, the reaction was stopped by addition of […] 10% trichloroacetic acid per sample. […] The ratio of [3H]-E1 converted to [3H]-E2 or vice versa determines the conversion percentage of the samples. Inhibition was measured in three concentrations (100 nM, 1, and 5 µM) in order to follow the progression of inhibition efficiencies. Inhibition efficiencies of the tested inhibitors were calculated by comparing the conversion percentages of the samples including inhibitors with those of conversion controls (without inhibitors).

[2] = molecular target: T4, heterologously expressed human CYP1A2 enzyme (Homo sapiens, UniProt P05177); assay: CYP1A2 inhibition; conditions: read-out: CYP1A2 inhibition ∼ pIC50 (converted)
T4 construct: purchased Corning Inc., Corning, NY
T4 sequence (P05177 1-516): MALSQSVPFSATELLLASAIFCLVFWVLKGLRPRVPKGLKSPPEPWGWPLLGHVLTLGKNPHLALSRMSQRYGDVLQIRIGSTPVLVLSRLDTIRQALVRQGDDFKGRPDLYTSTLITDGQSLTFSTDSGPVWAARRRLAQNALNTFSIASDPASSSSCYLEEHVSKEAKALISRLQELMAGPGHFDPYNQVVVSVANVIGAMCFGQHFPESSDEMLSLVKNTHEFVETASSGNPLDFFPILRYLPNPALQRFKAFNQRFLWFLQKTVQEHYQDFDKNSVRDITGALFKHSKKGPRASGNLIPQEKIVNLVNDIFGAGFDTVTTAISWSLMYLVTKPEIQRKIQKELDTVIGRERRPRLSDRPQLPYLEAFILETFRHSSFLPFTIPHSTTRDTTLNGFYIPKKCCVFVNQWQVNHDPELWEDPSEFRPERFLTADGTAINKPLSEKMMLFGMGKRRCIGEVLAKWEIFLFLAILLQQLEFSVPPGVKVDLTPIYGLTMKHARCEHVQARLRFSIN
Description: Inhibition of CYP1A2 activity was determined using commercial heterologously expressed human CYP1A2 enzyme (Corning Inc., Corning, NY) essentially as described previously.

recombinant human HSD2 = molecular target: T5, recombinant human HSD2 (Homo sapiens, UniProt P37059); assay: HSD2 inhibition, HPLC assay of [3H]-E2 to [3H]-E1 conversion
T5 construct: made in house; host or cells: Sf9 insect cells
T5 sequence (P37059 1-387): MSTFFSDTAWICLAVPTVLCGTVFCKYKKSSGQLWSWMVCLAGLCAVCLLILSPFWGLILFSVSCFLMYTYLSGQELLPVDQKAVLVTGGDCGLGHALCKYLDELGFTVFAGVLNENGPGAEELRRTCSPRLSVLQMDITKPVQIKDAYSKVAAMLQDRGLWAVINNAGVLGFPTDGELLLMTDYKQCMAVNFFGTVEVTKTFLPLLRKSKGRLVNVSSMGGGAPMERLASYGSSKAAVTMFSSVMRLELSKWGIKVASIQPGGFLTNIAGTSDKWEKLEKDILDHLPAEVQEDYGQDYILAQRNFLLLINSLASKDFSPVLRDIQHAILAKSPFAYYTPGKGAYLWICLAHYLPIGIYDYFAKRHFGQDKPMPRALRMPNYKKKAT
Description: The inhibition was determined by HPLC using recombinant human HSD1 and HSD2 proteins as described in a prior study. In short, recombinant human HSD1 and HSD2 were produced in Sf9-insect cells. […]. After incubation, the reaction was stopped by addition of […] 10% trichloroacetic acid per sample. After incubation the substrate and the product of enzymatic conversion [3H]-E1 and [3H]-E2 were separated and quantified by HPLC (Alliance 2790, Waters, Milford, MA) connected to an online counter (Packard Flow Scintillation Analyser; Perkin Elmer Inc., Waltham, […]). The ratio of [3H]-E1 converted to [3H]-E2 or vice versa determines the conversion percentage of the samples. Inhibition was measured in three concentrations (100 nM, 1, and 5 µM) in order to follow the progression of inhibition efficiencies. Inhibition efficiencies of the tested inhibitors were calculated by comparing the conversion percentages of the samples including inhibitors with those of conversion controls (without inhibitors).

Compound | MAO-B inhibition (in words) (MAO-B) | inhibition at 10 µM (MAO-B; 10 µM, single point, read at 2 h, read-out: MAO-B inhibition at 10 µM) | IC50 [1] | HSD1 inhibition (in words) (recombinant human HSD1) | inhibition at 0.1 µM (recombinant human HSD1; 100 nM, average of two measurements, except for compounds 8 and 9, read-out: HSD1 inhibition at 100 nM) | inhibition at 1 µM (recombinant human HSD1; 1 µM, average of three measurements, except for compounds 8 and 9, read-out: HSD1 inhibition at 1 µM) | IC50 (recombinant human HSD1; estimated from three measurements at 1 µM, average ± standard error, read-out: HSD1 inhibition ∼ pIC50 (converted)) | IC50 [2] | inhibition at 0.1 µM (recombinant human HSD2; 100 nM, control) | inhibition at 1 µM (recombinant human HSD2; read-out: HSD2 inhibition at 1 µM)
O=c1oc2ccccc2cc1-n1ccnc1 [Compound 10, 3–(1H-imidazol-1-yl)-2H-chromen-2-one] | blocking neither HSD1 nor MAO-B | 11% | 77.6 nM | blocking neither HSD1 nor MAO-B | 1% | 1% | > 5010 nM | 115 nM | – | –
O=c1c(Oc2ccc(Cl)cc2)coc2cc(O)cc(O)c12 [HM2001, 3–(4-Chlorophenoxy)-5,7-dihydroxychromen-4-one, reference compound] | – | – | – | – | – | – | – | – | 62.3% | 100%
